Test [1] has as its system diclofenac-induced gastric damage. Put plainly: Acute diclofenac-induced gastric toxicity in rats: gastric damage score. The note with it: Group C: GL1001 90 mg/kg oral gavage 30 min before diclofenac 50 mg/kg oral, 3 h; vehicle-diclofenac Group B 17.80 ± 5.08; p<0.02. Format: in vivo, rat. As to the method:
(§1) Male Wistar rats were deprived of food but not water for 16 hours prior to oral administration of GL1001 90 mg/kg, incubated for 30 minutes and then given oral diclofenac 50 mg/kg. Each group consisted of 6 rats. As a negative control, one group received vehicle pretreatment, and then received vehicle instead of diclofenac. A positive control group received PGE2 100 μg/kg orally, 30 minutes prior to administration of diclofenac. All treatments were administered by oral gavage.
(§2) Three hours after diclofenac treatment, all animals were sacrificed and stomachs were removed and imaged to determine the severity of gastric damage. Additionally, stomach tissue samples were taken to assess disease activity and pharmacodynamic effects. Gastric damage scores were determined from photographic images (Ma & Wallace (2003) Am. J. Physiol. Gastrointest. Liver Physiol. 279; 341-346). Removed stomachs were opened along the greater curvature, pinned out on a wax block, and photographed along a 25 mm ruler reference with a digital 35 mm camera. The lesion area was then determined using enlarged images and computer software (www.scioncorp.co/pages/scion_image_windows.htm) that allows superimposed drawing of the perimeter of a wound and calculation of the area based on the ruler reference. Stomach samples (excluding forestomach) were used for measurements of PGE2 concentration, MPO activity and ACE2 activity. PRE2 determinations are used in this study as a hiomarker of diclofenac effect since its mechanism of action involves inhibition of cyclooxygenase (COX-2 and COX-1) enzymes which in turn results in inhibition of PGE2 synthesis. Concentration of PGE2 from stomach tissue samples was performed as described by Souza et al. (2003), supra, and quantification was obtained by LC-MS. MTO, an enzyme found in abundance in granulocytes, is used as a biochemical marker of tissue inflammation. When tissues undergo inflammatory processes, granulocytes are recruited to the site of inflammation and infiltrate the affected tissue giving rise to increase MPO activity (Souza et al. (2003), supra). Last, the extent of inhibition of ACE2 activity was determined to establish whether GL1001 was effective in inhibiting its ACE2 target in stomach tissues. The ACE2 activity assay is similar to the method of Vickers et al. (2002) J. Biol. Chem. 277:14838-14843, wherein purified recombinant ACE2 (100 pM) and a quenched fluorescent substrate (100-150 μM APK (7-methoxycoumarin-4-yl)acetyl-Ala-Pro-Lys (2,4-dinitrophenyl)) are used in end-point fluorescence reactions (excitation 320 nm, emission 405 nm). For stomach ACE2 measurements, tissues were homogenized in the presence of a general protease inhibitor (PMSF) and specific ACE inhibitors. […]
(§3) Data are expressed as means with standard errors. […]

Another test has as its system gastric PGE2. Put plainly: Acute diclofenac-induced gastric toxicity in rats: gastric PGE2 concentration. Format: in vivo, rat. The note with it: Group C: GL1001 oral before diclofenac 50 mg/kg; vehicle/vehicle Group A 43.22 ± 12.13. As to the method:
as §1
as §2, with “PRE2 determinations are used in this study as a hiomarker of diclofenac effect since its mechanism of action involves inhibition of cyclooxygenase (COX-2 and COX-1) enzymes which in turn results in inhibition of PGE2 synthesis.” left out, “MTO, an enzyme found in abundance in granulocytes, is used as a biochemical marker of tissue inflammation. When tissues undergo inflammatory processes, granulocytes are recruited to the site of inflammation and infiltrate the affected tissue giving rise to increase MPO activity (Souza et al. (2003), supra).” left out, “nm).” for “nm). For stomach ACE2 measurements, tissues were homogenized in the presence of a general protease inhibitor (PMSF) and specific ACE inhibitors.”
as §3

Test [2] relates to activator protein-1 (AP-1). In words: In vivo basal reporter luciferase expression in AP-1::Luc mice. The arrangement: species or system mouse. The note with it: data not shown.
Another test concerns the target T1, ACE2 (Rattus norvegicus, UniProt Q5EGZ1).
T1 construct: from tissue; host or cells: rat stomach (excluding forestomach) homogenate
Put plainly: Stomach tissue homogenates spiked with excess GL1001, ACE2 fluorescence assay. The test is classed as biochemical. As to the method: Three hours after diclofenac treatment, all animals were sacrificed and stomachs were removed and imaged to determine the severity of gastric damage. Additionally, stomach tissue samples were taken to assess disease activity and pharmacodynamic effects. Gastric damage scores were determined from photographic images (Ma & Wallace (2003) Am. J. Physiol. Gastrointest. Liver Physiol. 279; 341-346). Removed stomachs were opened along the greater curvature, pinned out on a wax block, and photographed along a 25 mm ruler reference with a digital 35 mm camera. The lesion area was then determined using enlarged images and computer software (www.scioncorp.co/pages/scion_image_windows.htm) that allows superimposed drawing of the perimeter of a wound and calculation of the area based on the ruler reference. Stomach samples (excluding forestomach) were used for measurements of PGE2 concentration, MPO activity and ACE2 activity. […] Concentration of PGE2 from stomach tissue samples was performed as described by Souza et al. (2003), supra, and quantification was obtained by LC-MS. […] Last, the extent of inhibition of ACE2 activity was determined to establish whether GL1001 was effective in inhibiting its ACE2 target in stomach tissues. […]

The test system of test [3] is NF-κB dependent transcription. Put plainly: In vivo imaging of basal NF-κB dependent transcription in NF-κB::Luc reporter mice. The arrangement: species or system mouse. The note with it: male NF-κB::Luc mice, 4 hours, FIG. 2. As to the method: GL1001 was tested for in vivo anti-inflammatory activity by examining its effects on basal levels of NF-κB dependent transcription in mice engineered in the germline with a construct containing an NF-κB enhancer linked to a luciferase gene (i.e., NF-κB::Luc mice), such that this NE-κB reporter construct is present in all cells of the mice.
More particularly, transgenic NF-κB::Luc mice were generated using three NF-κB response elements from the Igκ light chain promoter fused to a firefly luciferase gene as described by Carlsen et al. (2002) J. Immunol. 168:1441-1446. Pronuclear microinjection of purified construct DNA was used to generate transgenic founders in the C57BL/6 XCBA/J background. Founders were subsequently back-crossed to the C57BL/6 albino background. […] Signal data were also quantitated and archived using the Living Image® software. Photons of light were quantitated using an oval region of interest (ROI) of varying sizes depending on the procedure, as described further below.
To test for in vivo effects of GL1001 on basal levels of NF-κB dependent transcription, male NF-κB::Luc mice were subjected to quantitative in vivo imaging of the abdominal area (using a fixed ROT of 2.76×3.7 cm) as described above, immediately before, and at 2, […]

“And” between values parts separate entries of the source, which are not always exact repeats. Equal values may be shown once.

T1 sequence (Q5EGZ1 18-805): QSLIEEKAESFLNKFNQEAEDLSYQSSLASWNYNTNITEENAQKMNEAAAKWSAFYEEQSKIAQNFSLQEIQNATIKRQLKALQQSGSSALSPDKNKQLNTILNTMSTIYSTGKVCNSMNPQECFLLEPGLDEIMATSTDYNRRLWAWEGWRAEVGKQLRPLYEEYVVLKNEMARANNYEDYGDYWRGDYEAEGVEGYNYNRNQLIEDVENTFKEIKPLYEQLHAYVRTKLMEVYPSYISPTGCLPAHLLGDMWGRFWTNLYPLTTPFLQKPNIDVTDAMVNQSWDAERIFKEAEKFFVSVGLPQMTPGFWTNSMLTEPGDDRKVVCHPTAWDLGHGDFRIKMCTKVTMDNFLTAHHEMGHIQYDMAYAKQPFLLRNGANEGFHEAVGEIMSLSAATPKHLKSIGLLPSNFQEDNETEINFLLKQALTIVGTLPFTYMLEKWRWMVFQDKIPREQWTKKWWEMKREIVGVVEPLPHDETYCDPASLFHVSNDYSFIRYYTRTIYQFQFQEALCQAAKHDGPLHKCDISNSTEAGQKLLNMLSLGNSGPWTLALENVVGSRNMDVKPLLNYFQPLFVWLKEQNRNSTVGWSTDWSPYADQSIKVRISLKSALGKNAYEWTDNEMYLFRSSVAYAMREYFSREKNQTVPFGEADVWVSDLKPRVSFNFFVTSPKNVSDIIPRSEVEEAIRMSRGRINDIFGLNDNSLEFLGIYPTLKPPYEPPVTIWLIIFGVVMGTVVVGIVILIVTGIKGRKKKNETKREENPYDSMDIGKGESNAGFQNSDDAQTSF

As for `CC(C)C[C@H](N[C@@H](Cc1cncn1Cc1cc(Cl)cc(Cl)c1)C(=O)O)C(=O)O` [GL1001, (S,S)-2-[1-carboxy-2-[3-(3,5-dichlorobenzyl)-3H-imidazol-4-yl]-ethylamino]-4-methylpentanoic acid], the Gastric damage score in test [1] was 2.6 and 2.63 ± 0.87. For the same molecule, in the test on gastric PGE2, the “Gastric PGE2 concentration” value was 0 pg/mg. For the same molecule, the “effect on basal in vivo levels of reporter luciferase expression” value in test [2] is recorded as “no significant effect”. In addition, the “further inhibition of ACE2 on spiking” value at ACE2 (tissue samples of Group C (dosed in vivo with GL1001) spiked with excess GL1001) is “no further inhibition”. The “decrease in the fluorescence signal (ACE2 specific activity)” value on ACE2 (tissue samples of Groups A and B spiked with vast excess of GL1001 (>IC90)) is reported as 40-50%. Further, the “inhibition of basal in vivo levels of NF-κB dependent transcription in abdominal ROI” value in test [3] (300 mg/kg s.c., p<0.01) is given as “over 40%”; in test [3] (both lower doses s.c.) it was “lesser but still significant extents”.

The values are drawn from patent publication US20100035848A1, “THERAPY FOR DISORDERS OF THE PROXIMAL DIGESTIVE TRACT” (priority 2008, published 2010).
